This series can be described thus: Solubility in a nematic.

For the substance “2-[4′-(6-Acryloyloxyhexyloxy)-2′.5′-methylazophenyl-4-carbonyloy]—5-[4-(6-Acryloyloxyhexyloxy)benzoyl]-1.4:3.6-D-glucitol [Compound 209sf]”, the Solubility s was determined as 4.0% < s % mass.

(Values after patent US6680003B2, “Chiral doping agents with variable spiral pitch induction and application thereof to a reflective color display” (Asulab S.A., priority 2000, dated 2004).)
